The target of this assay is sorcin (Homo sapiens, UniProt P30626). The assay can be described thus: SPR. Type of assay: binding.
sorcin, sequence (P30626 whole entry): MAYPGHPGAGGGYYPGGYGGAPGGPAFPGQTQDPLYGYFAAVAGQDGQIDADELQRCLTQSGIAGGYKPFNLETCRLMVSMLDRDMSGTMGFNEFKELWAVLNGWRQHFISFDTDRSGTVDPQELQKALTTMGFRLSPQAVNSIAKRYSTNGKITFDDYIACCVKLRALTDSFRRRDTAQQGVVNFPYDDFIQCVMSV

As usually defined, the Kd is the constant that tells how readily two partners part at equilibrium. Lower therefore signals higher affinity. For `CC1=C(O)C(=O)C=C2C1=CC=C1[C@@]2(C)CC[C@@]2(C)[C@@H]3C[C@](C)(C(=O)O)CC[C@]3(C)CC[C@]12C` [compound 1, celastrol], binding was characterised by a dissociation constant (Kd) of 2130 nM.
